Source: ChEMBL document CHEMBL1130865, “Carbaxylosides of 4-ethyl-2-oxo-2H-benzopyran-7-yl as non-hydrolyzable, orally active venous antithrombotic agents” (1998)

How the values were obtained:
[1] = system: Rattus norvegicus; assay: Antithrombotic activity was determined in rat upon oral administration at dose 20 mg/kg (4 hours before); type: functional
[2] = system: Rattus norvegicus; assay: Antithrombotic activity was determined in rat upon oral administration at dose 3 mg/kg (4 hours before); type: functional

Row | Structure (SMILES) | Activity [1] [%] | Activity [2] [%]
1 | CCc1cc(=O)oc2cc(OC3CCC(O)[C@H](O)[C@H]3O)ccc12 (some centres undefined) | 20 | –
2 | CCc1cc(=O)oc2cc(OC3OCC(O)[C@H](O)[C@H]3O)ccc12 (some centres undefined) | – | 71
3 | CCc1cc(=O)oc2cc(OC3SCC(O)[C@H](O)[C@H]3O)ccc12 (some centres undefined) | – | 71
4 | CCc1cc(=O)oc2cc(OC3CCC(O)C(O)C3O)ccc12 (single isomer, unassigned; (-)) | 96 | –
